One assay addresses T1, UBC13-UEV1 interaction (Homo sapiens, UniProt P61088).
T1 construct: expressed in transfected cells; host or cells: Saccharomyces cerevisiae strain AH109
T1 sequence (P61088 1-152): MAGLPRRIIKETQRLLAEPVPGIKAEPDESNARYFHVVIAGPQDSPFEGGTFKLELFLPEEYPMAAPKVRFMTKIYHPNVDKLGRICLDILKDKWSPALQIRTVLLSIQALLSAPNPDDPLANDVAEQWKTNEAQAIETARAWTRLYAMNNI
Description: Two-hybrid assay in yeasts for the UBC13-UEV1 interaction (β-galactosidase). The class given is cell-based. The following applies: read-out: inhibition of the interaction between UBC13 and UEV1. The source says: The interaction between UBC13 and UEV1 is detected by means of two-hybrid assays in yeast. The protein forms of UBC13 and UEV1 used in the following examples are of Homo sapiens. The UBC13 protein, also referred to as UBE2N (HUGO nomenclature) has the following identifiers: NCBI-GI: 4507793, UniProt: P61088 and [EC:6.3.2.19]. The UEV1 protein, also referred to as UBE2V1 (HUGO nomenclature), has the following identifiers: NCBI-GI: 73765546 and UniProt: {tilde under (O)}13404. In this assay, UBC13 is expressed as a fusion protein with the Gal4 DNA-binding domain (DBD-UBC13) from the plasmid pBD-UBC13, and UEV1 is expressed as a fusion protein with the Gal4 transcriptional activation domain (AD-UEV1) from the plasmid pACT2-UEV1. Both plasmids are cotransfected in the Saccharomyces cerevisiae strain AH109, being grown on plates with […] without leucine or tryptophan, selecting only the colonies expressing […] for these two amino acids, i.e., those containing the two co-transfected plasmids. […]

For assay [1], the system named is S. cerevisiae Δrad6 mutants. Description: Survival of S. cerevisiae Δrad6 mutants after ultraviolet radiation or MMS. It is filed as cell-based, Saccharomyces cerevisiae. To be noted: 100 μM; for rescue of the rad6 phenotype generated by treatment with MMS (survival): 0.03% MMS; for rescue of the rad6 phenotype induced by UV irradiation (survival): ultraviolet radiation. How it is done:
To determine if compounds Ia and Ib inhibit the function of Ubc13p-Mms2p, their capacity to mimic in S. cerevisiae the DNA repair phenotypes generated by the null mutation of ubc13 was evaluated. Thus, mutant strains in RAD6 or REV3 and the parent strain thereof (control) were used in viability assays after the exposure to ultraviolet radiation or MMS. The genotypes of the strains used are the following:
2) Strain Δrad6: MAT at his3Δ1 leu2Δ0 lys2Δ0 ura3Δ0 rad6::kanMX4
Cells were inoculated in liquid cultures with YPD medium overnight at 30° C., until reaching the log phase of growth. For the treatments with ultraviolet radiation, aliquots of cells, grown in the presence or absence of 100 μM of compounds Ia or Ib were irradiated in a Stratalinker instrument (Stratagene) at the energies indicated in FIGS. 7 and 8. For the treatment with the mutagenic agent MMS, aliquots of cells grown or not in medium with 100 μM of compounds Ia or Ib were incubated, 0.03% MMS being added, with subsequent incubation for the times indicated in FIGS. 7 and 8. After either treatment, 500 cells were seeded in plates with YPD medium, counting the colonies after 2 days.

Assay [2] concerns interaction between p53 and large T. Description: Two-hybrid assay in yeasts, positive interaction control p53 - large T. The class given is cell-based. To be noted: 100 μM. How it is done: Each of the 52 mixtures of peptoids was analyzed by means of this process in triplicate, in three independent experiments. The interaction between UBC13 and UEV1 in the absence of peptoids and the interaction between p53 and the SV40 large T protein were used as positive interaction controls in all these assays. The laminin and […] proteins were used as a negative control. The β-galactosidase activities for the UBC13-UEV1 interaction were standardized with respect to the β-galactosidase activities of the corresponding positive control thereof (p53-large T). The activities β-galactosidase standardized in that manner are illustrated in FIG. 2.
The effect of compounds Ia and Ib on the UBC13-UEV1 interaction in two-hybrid assays in yeasts was performed by incubating cells of the Saccharomyces cerevisiae strain AH109, grown in a selective medium, with 100 μM of either compound. The interaction of Sv40 large T and p53 proteins was used as positive interaction control. The intensity of the interactions was determined colorimetrically by means of detecting the β-galactosidase activity, using O-nitrophenyl-p-galactopyranoside (ONPG) as a substrate, each determination being performed in triplicate. […]

For `NC(=O)CN(CCc1ccccn1)C(=O)CC1C(=O)N(CCc2ccc(F)cc2)CC(=O)N1CCc1ccc(F)cc1` (centres unmarked) [Ib, 1,4-bis[2′-(4″-fluorophenyl)ethyl]-2-[N-aminocarbonylmethyl-N-(2′-(2″-pyridyl)ethyl)-carbonylmethyl]piperazine-3,6-dione], the inhibition at 100 µM at UBC13-UEV1 interaction was around 40%. For the same compound, in assay [1], the “rescue of the rad6 phenotype generated by treatment with MMS (survival)” value was “to a lesser extent” and the “rescue of the rad6 phenotype induced by UV irradiation (survival)” value was “clearly rescued the rad6 phenotype”. The “inhibition of the control interaction between p53 and large T” value in assay [2] was “Neither of these two compounds inhibits the interaction”.

Regarding `NC(=O)CN(CCc1ccccn1)C(=O)C1CC(=O)N(CCc2ccc(F)cc2)CC(=O)N1CCc1ccc(F)cc1` (centres unmarked) [Ia, N-aminocarbamoylmethyl-N-(2′-(2″pyridyl)ethyl)-1,4-bis[2′-(4″-fluorophenyl)ethyl]-3,7-dioxo-[1,4]diazepane-5-carboxamide], the inhibition at 100 µM at UBC13-UEV1 interaction is around 60%. Further, in assay [1], the “rescue of the rad6 phenotype generated by treatment with MMS (survival)” value was “to a lesser extent” and the “rescue of the rad6 phenotype induced by UV irradiation (survival)” value is “clearly rescued the rad6 phenotype”. For the same compound, the “inhibition of the control interaction between p53 and large T” value in assay [2] is listed as “Neither of these two compounds inhibits the interaction”.

In general, inhibition refers to the drop in the measured response relative to a control, in per cent.

The values above are taken from patent US8785430B2, “Compound that can inhibit UBC13-UEV interactions, pharmaceutical compositions and therapeutic uses” (Consejo Superior de Investigaciones Cientificas, priority 2006, dated 2014).
